B1: E3: humanized, affinity matured anti-NGF antagonist antibody; variable regions SEQ ID NO:1 and 2; human IgG2a (A330P331 to S330S331), kappa (antibody, V domains shown)
VH: QVQLQESGPGLVKPSETLSLTCTVSGFSLIGYDLNWIRQPPGKGLEWIGIIWGDGTTDYNSAVKSRVTISKDTSKNQFSLKLSSVTAADTAVYYCARGGYWYATSYYFDYWGQGTLVTVS
VL: DIQMTQSPSSLSASVGDRVTITCRASQSISNNLNWYQQKPGKAPKLLIYYTSRFHSGVPSRFSGSGSGTDFTFTISSLQPEDIATYYCQQEHTLPYTFGQGTKLEIKRT
modifications: human IgG2a constant (A330S/P331S) and kappa constant missing

Legend:
Format in all cases: in vivo, rat
[1] = test system: complete Freund's adjuvant (CFA)-induced chronic arthritis; test: CFA arthritis rats, hindpaw weight; conditions: arthritic rats; E3 1 mg/kg or 911 10 mg/kg i.v. D14+D19, indomethacin 3 mg/kg p.o. over 10 days; D24
Experimental: On Day 24 (5 days after the last i.v. bolus injection or 24 hours after the last p.o. administration) (after X-rays radiographies), each animal hindpaw (arthritic and non arthritic rats) was weighed and was collected in a labelled polyethylene vial. Tissue samples were frozen in liquid nitrogen and stored at −80° C.
(§1) All results were reported as Mean ±S.E.M. of 10 rats in each group at each time point. Paw volume was expressed in ml calculated from the mean value of the right and left paw volume. Arthritis index was calculated from the sum of the score obtained for each of the 4 paws. The nociceptive response was evaluated by the intensity of the level of vocalization recorded for each animal (mean of 4 values: 2 times/paw) in mV. The percentage inhibition of the nociceptive response was calculated from the mean value of the vehicle-treated arthritic group [(mean value of vehicle-treated arthritic group−mean value of treated arthritic group/mean value of vehicle-treated arthritic group)*100]. Body weight was expressed in grams. Hindpaws (left and right) weight was expressed in grams. Cytokine levels (IL-6, IL-1β, TNF-α and TGF-β1) of each hind paw was expressed in pg/ml. Circulating levels of TGF-β1 was expressed in pg/ml. Radiological index for each parameter (demineralization, erosions, periostal reaction, soft tissue damage, space joint, osteogenesis deformity) and total radiological index (total score) were calculated from the sum of the scores obtained for each parameter. The inter-group significances of the deviations between the values of vehicle-treated group (arthritic rats) and vehicle-treated group (non arthritic rats) were assessed by the Student t test or Mann-Whitney Rank Sum Test when equal variance or normality test failed. The inter-group significances of the deviations between the values of vehicle-treated group (arthritic rats) and E3- and 911- and Indomethacin-treated groups were assessed by the 1-way analysis of variance ANOVA followed by the non-paired Dunnett t test. A probability of P<0.05 was considered as significant. All statistical analysis was performed by the Sigmastat™ software.

[2] = CFA arthritis rats, body weight (Example 8); conditions: for body weight: arthritic rats
Experimental: Five groups of 10 animals (5-weeks old male Lewis rats-LEWIS Lew/Ico, from Charles River Laboratories—Belgium) each were included in this study: Group 1: non arthritic rats/saline (vehicle), i.v. bolus, n=10; Group 2: arthritic rats/saline (vehicle), i.v. bolus, n=10; Group 3: arthritic rats/Indomethacin 3 mg/kg, p.o daily over 10 days, n=10; Group 4: arthritic rats/E3, 1 mg/kg, i.v. bolus, n=10; Group 5: arthritic rats/911, 10 mg/kg, i.v. bolus, n=10. The doses were expressed in terms of free active substance (mg/kg). E3 and 911 were extemporaneously prepared in saline from the stock solution to the desired concentration. E3 1 mg/kg: 3.41 mL of the stock solution (0.88 mg/ml) q.s.p. 15 mL of saline. 911 10 mg/kg: 12 mL of the stock solution (2.5 mg/ml) q.s.p. 15 mL of saline. All diluted solutions (before i.v. injection) were sterilized using a sterile filter unit of 0.20.μm. pH and osmolarity values of diluted solutions were measured before each i.v. injection. Before the first i.v., osmolarity (mosm/L) for saline, E3, and 911 were 278, 269, and 308 respectively; pH for saline, E3, and 911 were 5.93, 6.76, 6.71 respectively. Before the second i.v., osmolarity (mosm/L) for saline, E3, and 911 were 280, 270, and 309 respectively; pH for saline, E3, and 911 were 5.86, 6.72, and 6.59 respectively.
E3 or 911 or saline were administered by i.v. bolus injection on Day 14 and Day 19 after arthritis induction in a coded and random order with a volume of 5 mL/kg. The non arthritic group was given by i.v. bolus injection of saline on Day 14 and Day 19 with a volume of 5 mL/kg. Indomethacin was extemporaneously prepared in 1% methylcellulose. Indomethacin was administered by oral route (p.o.) once daily over 10 days from Day 14 to Day 23 after arthritis induction in a coded and random order with a volume of 10 mL/kg.
The animals were weighed once daily from Day 0 to Day 24 (except during the week-end days before the treatment: D 1, D 2, D 8, D 9, D 10). All measurements were performed between 9:00 and 12:00 am except at D 14 (7:30-9:00 am) and D 24 (7:30-8:00 am).
as §1

TGF-β1 = test: CFA arthritis rats, circulating TGF-β1 in serum (ELISA); conditions: D24; for serum TGF-β1 level: arthritic rats, E3 1 mg/kg or 911 10 mg/kg i.v. D14+D19, indomethacin 3 mg/kg p.o.
Experimental: On Day 24 (after paw volume and arthritis index measurements and test vocalization), under general anaesthesia using isoflurane (in a mixture of oxygen and nitrous oxide), the blood samples (about 800-1000 μl) was collected by capillary action with a micropipette from retroorbital sinus.
Measurement of circulating TGF-β1 (groups 1-2-3-4-5): A part of blood sample was collected in micro tubes for serum preparation at ambient temperature. Following sample collection, blood was mixed and allowed to clot for 30 minutes prior to the centrifugation. The tubes were centrifuged at about 6000 g for 3 minutes. Each serum sample (at least 100 μL, except for rat #52 and #53) was aliquoted and stored at −20° C. until sample activation for TGF-β1 analysis. These aliquots (50 vials) were kept for a period of 6 months starting from the end of the study. […] TGF-β1 levels were measured using human TGF-β1 ELISA kit (ref. DB100, Batch 212258 and 213610, R&D Systems—France).
All results were reported as Mean ±S.E.M. of 10 rats in each group at each time point. Paw volume was expressed in ml calculated from the mean value of the right and left paw volume. Arthritis index was calculated from the sum of the score obtained for each of the 4 paws. The nociceptive response was evaluated by the intensity of the level of vocalization recorded for each animal (mean of 4 values: 2 times/paw) in mV. The percentage inhibition of the nociceptive response was calculated from the mean value of the vehicle-treated arthritic group [(mean value of vehicle-treated arthritic group−mean value of treated arthritic group/mean value of vehicle-treated arthritic group)*100]. […] Radiological index for each parameter (demineralization, erosions, periostal reaction, soft tissue damage, space joint, osteogenesis deformity) and total radiological index (total score) were calculated from the sum of the scores obtained for each parameter. […]

[3] = E3 1 mg/kg or 911 10 mg/kg i.v. D14+D19, indomethacin 3 mg/kg/day p.o., D24
[4] = before treatment (dosing starts D14), D3
[5] = before treatment (dosing starts D14), D4
[6] = before treatment (dosing starts D14), D5
[7] = before treatment (dosing starts D14), D6
[8] = before treatment (dosing starts D14), D7
[9] = before treatment (dosing starts D14), D11
[10] = before treatment (dosing starts D14), D12
[11] = before treatment (dosing starts D14), D13
[12] = group later given E3 1 mg/kg or 911 10 mg/kg i.v. D14+D19 or indomethacin 3 mg/kg/day p.o., D0
[13] = D14 (selection day, first dosing)
[14] = E3 1 mg/kg or 911 10 mg/kg i.v. D14+D19, indomethacin 3 mg/kg/day p.o., D15
[15] = E3 1 mg/kg or 911 10 mg/kg i.v. D14+D19, indomethacin 3 mg/kg/day p.o., D16
[16] = E3 1 mg/kg or 911 10 mg/kg i.v. D14+D19, indomethacin 3 mg/kg/day p.o., D17
[17] = E3 1 mg/kg or 911 10 mg/kg i.v. D14+D19, indomethacin 3 mg/kg/day p.o., D18
[18] = E3 1 mg/kg or 911 10 mg/kg i.v. D14+D19, indomethacin 3 mg/kg/day p.o., D19
[19] = E3 1 mg/kg or 911 10 mg/kg i.v. D14+D19, indomethacin 3 mg/kg/day p.o., D20
[20] = E3 1 mg/kg or 911 10 mg/kg i.v. D14+D19, indomethacin 3 mg/kg/day p.o., D21
[21] = E3 1 mg/kg or 911 10 mg/kg i.v. D14+D19, indomethacin 3 mg/kg/day p.o., D22
[22] = E3 1 mg/kg or 911 10 mg/kg i.v. D14+D19, indomethacin 3 mg/kg/day p.o., D23

Molecule | left hindpaw weight [1] [grams] | right hindpaw weight [1] [grams] | maximum body weight increase compared to vehicle-treated arthritic group [2, 3] | body weight [2, 4] [grams] | body weight [2, 5] [grams] | body weight [2, 6] [grams] | body weight [2, 7] [grams] | body weight [2, 8] [grams] | body weight [2, 9] [grams] | body weight [2, 10] [grams] | body weight [2, 11] [grams] | body weight [2, 12] [grams] | body weight [2, 13] [grams] | body weight [2, 14] [grams] | body weight [2, 15] [grams] | body weight [2, 16] [grams] | body weight [2, 17] [grams] | body weight [2, 18] [grams] | body weight [2, 19] [grams] | body weight [2, 20] [grams] | also measured
COc1ccc2c(c1)c(CC(=O)O)c(C)n2C(=O)c1ccc(Cl)cc1 [Indomethacin, reference compound] | 2.23±0.04 | 2.20±0.05 | about 43 g | 217 ± 4 | 225 ± 4 | 235 ± 4 | 239 ± 4 | 246 ± 4 | 242 ± 7 | 235 ± 7 | 227 ± 6 | 202 ± 3 | 224 ± 5 | 230 ± 4 | 230 ± 5 | 231 ± 4 | 234 ± 4 | 236 ± 4 | 241 ± 4 | 246 ± 4 | body weight [2, 21]: 248 ± 5 grams; body weight [2, 22]: 253 ± 5 grams; body weight [2, 3]: 261±5 grams; serum TGF-β1 level (TGF-β1): 57222.2 ± 3194.1 pg/mL; decrease of serum TGF-β1 level compared to vehicle-treated arthritic group (TGF-β1; indomethacin 3 mg/kg/day p.o. 10 days): about 1.5 times
B1 | 3.86±0.14 | 3.72±0.13 | about 46 g | 222 ± 3 | 230 ± 3 | 241 ± 3 | 243 ± 3 | 249 ± 3 | 242 ± 6 | 237 ± 6 | 230 ± 5 | 206 ± 4 | 225 ± 5 | 223 ± 5 | 224 ± 5 | 227 ± 4 | 232 ± 4 | 235 ± 4 | 238 ± 4 | 245 ± 4 | body weight [2, 21]: 250 ± 5 grams; body weight [2, 22]: 257 ± 5 grams; body weight [2, 3]: 264±5 grams; serum TGF-β1 level (TGF-β1): 69408.8 ± 3926.7 pg/mL

From patent US20080182978A1, “ANTI-NGF ANTIBODIES AND METHODS USING SAME” (RINAT NEUROSCIENCE CORP, priority 2002, published 2008)
